System: T cells activated with allogeneic dendritic cells
Test: Allogeneic restimulation, with donor-specific or third-party DCs, of T cells activated with allogeneic DCs
Format: cell-based, human
Parameters: restimulation with donor-specific DCs: dose or concentration left out as unconfirmed
Excerpt: • (a) Allogeneic T-cell response. DCs were infected with recombinant IDO-adeno-GFP (DC-IDO-GFP), IDO-adeno (DC-IDO) or with control adenoviruses (DC-adeno) at a MOI (multiplicity of infection) up to 500 for 2 days. Lymphocytes (PBMCs) were separated from peripheral blood of healthy donors by density gradient centrifugation and typed for HLA antigens. Only HLA-DR-different responder lymphocytes were used for DC-induced stimulation. Native DCs only, lymphocytes only, native DCs + allogeneic lymphocytes, DC-IDO-GFP + allogeneic lymphoytes, DC-IDO + allogeneic lymphoytes, DC-adeno + allogeneic lymphocytes (each time 10^5 DC + 10^5 lymphocytes in 0.2ml medium) were cultured in RPMI 1640 medium (Gibco BRL Life Technologies GmbH, Eggenstein, Germany) with 10% fetal calf serum (FCS) (final tryptophan concentration 5.25 mg/l = 25.69 uM) and Penicillin G/Streptomycin. After 5 days, ^3[H]-thymidin was added for 12hrs and the number of counts (counts per minute = cpm) determined in a (3-counter (Inotech Biosystems, Lansing, MI). In order to verify whether IDO expression or adenovirus infection harm the DCs, 10^5 cells were infected with IDO-adeno-GFP, IDO-adenovirus, or adenovirus only at a stepwise decreasing MOI (500, 250, 125, ........ 3.9) and cell viability was measured in FACS following double staining with 7-AAD and anti-CD83 antibody-PE. The percentage of dead cells never exceeded 30% for any MOI following IDO-adeno-GFP- or IDO-adeno-infection and 40% following adenovirus(control)-infection. Moreover, these values were not higher than those of native DCs cultured for the same period of time. […] After 2 days, cell proliferation was assessed by measuring ^3[H]-thymidin incorporation (cpm) as described. • (c) Tryptophan metabolite titration curves. […] After 2 days, ^3[H] thymidin was added and the number of counts recorded. […] After another 2 days, ^3[H] thymidin was added and cpm determined. […] 3[H] thymidin was added to all cultures and the number of counts (cpm) determined. • (e) Tryptophan titration curve. […]

For `Nc1ccccc1C(=O)CC(N)C(=O)O` (stereo not drawn) [kynurenine], the “restimulation with third-party DCs” value (extremely high doses (1500µM or 750µM) of kynurenine) was “only minimal reactions”, the “restimulation with donor-specific DCs” value (kynurenine in primary stimulation, 5 days, washed) was “cannot be restimulated with DCs from the same donor” and the “restimulation with third-party DCs” value (medium or low doses (375µM - 47µM) of kynurenine) was “significant restimulation”.

Reference: EP1369114A1, “Use of tryptophan metabolites as pharmaceutical agents” (Terness, Peter, Priv. Doz. Dr., priority 2002, dated 2003)
